Measurements as given in BindingDB's records for patent US10221174 (University of Michigan, 2019).
pIC50: −log10 of the molar value.

Target: Isoform Bcl-X(L) of Bcl-2-like protein 1 (Bcl-xL) (Homo sapiens, UniProt Q07817)
Sequence (Q07817 whole entry G70A, canonical isoform): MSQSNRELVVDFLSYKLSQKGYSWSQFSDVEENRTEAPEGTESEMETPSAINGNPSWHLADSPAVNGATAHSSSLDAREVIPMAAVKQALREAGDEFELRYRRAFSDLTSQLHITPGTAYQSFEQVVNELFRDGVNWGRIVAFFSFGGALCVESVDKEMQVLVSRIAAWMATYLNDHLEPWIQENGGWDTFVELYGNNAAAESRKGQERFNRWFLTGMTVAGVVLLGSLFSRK

| Compound | pIC50 |
| --- | --- |
| O=C(NS(=O)(=O)c1cc([N+](=O)[O-])c2cnn(C3CCOCC3)c2c1)c1ccc(N2CCN(CC3=C(c4ccc(Cl)cc4)CC4(CCC4)CC3)CC2)cc1Oc1cnc2[nH]ccc2c1 [US10221174, Compound 64] | 8.06 |
| O=C(NS(=O)(=O)c1cc([N+](=O)[O-])c2cnn(CC3CCOCC3)c2c1)c1ccc(N2CCN(CC3=C(c4ccc(Cl)cc4)CC4(CCC4)CC3)CC2)cc1Oc1cnc2[nH]ccc2c1 [US10221174, Compound 62] | 8.40 |
